Test results published in paper PMC4669708 (Cell Death & Disease, 2015).

Assays:
Experiment in all cases: c-ponatinib pulldown LC-MS/MS
Format in all cases: binding
[1] = molecular target: RAF1 (Homo sapiens, UniProt P04049)
Outline: (§1)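 Spectral counts and search-engine scores from LC-MS/MS of tryptic eluates gave drug-protein specificity P-values. Eluates came from duplicate pulldowns of 10 mg lysate on 25 nmol immobilized c-ponatinib. Competition was the ratio of median counts with versus without free compound.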

[2] = molecular target: MELK (Homo sapiens, UniProt Q14680)
Chain of MELK (Q14680 whole entry): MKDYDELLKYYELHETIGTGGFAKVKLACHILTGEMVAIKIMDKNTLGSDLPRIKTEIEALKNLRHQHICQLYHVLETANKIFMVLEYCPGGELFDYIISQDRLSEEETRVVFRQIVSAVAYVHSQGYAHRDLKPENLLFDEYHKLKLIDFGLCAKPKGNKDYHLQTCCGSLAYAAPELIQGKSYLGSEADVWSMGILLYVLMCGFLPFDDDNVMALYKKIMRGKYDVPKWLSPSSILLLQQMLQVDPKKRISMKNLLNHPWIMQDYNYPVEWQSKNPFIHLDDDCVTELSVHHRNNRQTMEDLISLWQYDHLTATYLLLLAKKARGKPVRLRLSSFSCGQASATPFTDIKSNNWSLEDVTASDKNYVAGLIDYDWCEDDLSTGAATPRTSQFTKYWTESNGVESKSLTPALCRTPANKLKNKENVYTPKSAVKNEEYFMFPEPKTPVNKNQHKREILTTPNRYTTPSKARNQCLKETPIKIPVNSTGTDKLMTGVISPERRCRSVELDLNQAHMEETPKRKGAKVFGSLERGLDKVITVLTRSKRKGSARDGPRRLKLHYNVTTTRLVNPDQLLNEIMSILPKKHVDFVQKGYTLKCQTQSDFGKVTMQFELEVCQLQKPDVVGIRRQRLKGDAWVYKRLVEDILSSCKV
Outline: as §1

[3] = molecular target: T1, TAB2 (Homo sapiens, UniProt Q9NYJ8)
T1 sequence (Q9NYJ8 1-693): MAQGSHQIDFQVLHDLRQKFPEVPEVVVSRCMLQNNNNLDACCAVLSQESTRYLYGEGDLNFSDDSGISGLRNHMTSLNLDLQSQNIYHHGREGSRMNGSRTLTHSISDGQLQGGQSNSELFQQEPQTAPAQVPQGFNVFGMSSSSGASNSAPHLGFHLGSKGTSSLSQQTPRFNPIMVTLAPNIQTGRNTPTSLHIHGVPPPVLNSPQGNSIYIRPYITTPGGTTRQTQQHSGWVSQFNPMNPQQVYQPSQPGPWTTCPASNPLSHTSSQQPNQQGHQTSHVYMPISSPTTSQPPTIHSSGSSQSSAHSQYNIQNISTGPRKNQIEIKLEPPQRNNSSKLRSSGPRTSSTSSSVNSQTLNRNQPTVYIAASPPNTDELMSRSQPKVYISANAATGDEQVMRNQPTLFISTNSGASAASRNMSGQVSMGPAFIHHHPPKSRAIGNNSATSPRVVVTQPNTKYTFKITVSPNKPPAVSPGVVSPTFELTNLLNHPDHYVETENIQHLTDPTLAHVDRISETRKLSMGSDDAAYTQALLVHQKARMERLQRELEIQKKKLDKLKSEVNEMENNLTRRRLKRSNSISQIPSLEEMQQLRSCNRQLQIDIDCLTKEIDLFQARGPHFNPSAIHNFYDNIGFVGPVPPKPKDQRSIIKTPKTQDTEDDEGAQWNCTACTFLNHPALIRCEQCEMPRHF
T1 sequence (O43318 1-606 partner): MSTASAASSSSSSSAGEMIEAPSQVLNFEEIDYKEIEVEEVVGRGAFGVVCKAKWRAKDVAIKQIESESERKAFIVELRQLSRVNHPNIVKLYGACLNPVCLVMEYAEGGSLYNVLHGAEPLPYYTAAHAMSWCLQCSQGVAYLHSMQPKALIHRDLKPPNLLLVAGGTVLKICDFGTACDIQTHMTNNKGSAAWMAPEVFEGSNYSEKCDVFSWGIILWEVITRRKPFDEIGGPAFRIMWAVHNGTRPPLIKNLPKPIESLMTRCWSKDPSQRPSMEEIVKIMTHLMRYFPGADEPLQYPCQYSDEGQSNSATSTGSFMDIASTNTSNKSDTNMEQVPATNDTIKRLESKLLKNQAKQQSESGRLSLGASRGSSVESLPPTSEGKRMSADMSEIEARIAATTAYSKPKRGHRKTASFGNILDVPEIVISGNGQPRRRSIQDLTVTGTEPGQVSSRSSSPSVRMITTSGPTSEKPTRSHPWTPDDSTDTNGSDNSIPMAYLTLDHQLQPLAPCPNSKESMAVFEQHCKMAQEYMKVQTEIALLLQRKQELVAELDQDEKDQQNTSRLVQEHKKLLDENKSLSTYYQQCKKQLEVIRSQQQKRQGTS
Outline: as §1

[4] = molecular target: ZAK (Homo sapiens, UniProt Q9NYL2)
Chain of ZAK (Q9NYL2 whole entry): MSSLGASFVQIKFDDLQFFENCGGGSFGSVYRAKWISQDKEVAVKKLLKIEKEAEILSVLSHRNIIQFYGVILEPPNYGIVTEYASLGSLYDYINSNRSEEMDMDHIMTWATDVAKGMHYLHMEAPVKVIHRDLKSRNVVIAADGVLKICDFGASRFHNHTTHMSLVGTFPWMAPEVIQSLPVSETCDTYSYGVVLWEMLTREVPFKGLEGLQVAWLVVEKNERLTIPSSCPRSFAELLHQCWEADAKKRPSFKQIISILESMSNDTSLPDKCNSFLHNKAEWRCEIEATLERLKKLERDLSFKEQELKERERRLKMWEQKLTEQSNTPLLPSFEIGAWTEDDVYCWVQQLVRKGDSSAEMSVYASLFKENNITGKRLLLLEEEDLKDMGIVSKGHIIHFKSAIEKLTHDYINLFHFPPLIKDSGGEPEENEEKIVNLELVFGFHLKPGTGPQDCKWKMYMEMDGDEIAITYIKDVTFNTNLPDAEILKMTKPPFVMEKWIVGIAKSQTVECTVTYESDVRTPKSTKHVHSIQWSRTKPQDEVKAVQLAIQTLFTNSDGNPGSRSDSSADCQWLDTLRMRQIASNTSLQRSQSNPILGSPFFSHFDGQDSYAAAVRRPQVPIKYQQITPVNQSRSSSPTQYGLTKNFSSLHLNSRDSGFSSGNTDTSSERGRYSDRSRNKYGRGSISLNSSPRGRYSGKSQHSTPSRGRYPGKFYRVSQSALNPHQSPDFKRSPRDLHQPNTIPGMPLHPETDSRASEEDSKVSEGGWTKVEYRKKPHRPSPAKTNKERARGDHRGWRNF
Outline: as §1

Chain of RAF1 (P04049 whole entry): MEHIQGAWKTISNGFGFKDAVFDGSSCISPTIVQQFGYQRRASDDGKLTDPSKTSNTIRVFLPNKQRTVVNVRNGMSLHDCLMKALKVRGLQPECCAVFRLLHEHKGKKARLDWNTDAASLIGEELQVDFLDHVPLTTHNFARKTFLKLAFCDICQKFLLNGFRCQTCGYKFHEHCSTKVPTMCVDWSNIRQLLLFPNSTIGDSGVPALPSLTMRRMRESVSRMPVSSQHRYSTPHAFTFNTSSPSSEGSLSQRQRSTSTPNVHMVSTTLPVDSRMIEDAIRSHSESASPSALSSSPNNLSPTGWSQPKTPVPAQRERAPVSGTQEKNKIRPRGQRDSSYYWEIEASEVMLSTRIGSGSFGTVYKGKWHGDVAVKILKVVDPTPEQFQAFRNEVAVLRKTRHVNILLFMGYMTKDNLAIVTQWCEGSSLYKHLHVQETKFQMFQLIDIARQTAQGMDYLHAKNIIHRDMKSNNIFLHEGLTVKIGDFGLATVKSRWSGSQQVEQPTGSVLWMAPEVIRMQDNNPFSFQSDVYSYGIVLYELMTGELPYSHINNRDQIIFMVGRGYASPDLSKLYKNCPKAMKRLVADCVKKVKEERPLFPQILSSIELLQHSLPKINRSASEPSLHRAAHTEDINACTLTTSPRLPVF

- Av. SC comp. ([1]; + free ponatinib): 0
- Total SC comp. ([1]; + free ponatinib): 0
- Av. SC ([1]; no competitor): 1.25
- Total SC ([1]; no competitor): 5
- Av. SC comp. ([2]; + free ponatinib): 1
- Total SC comp. ([2]; + free ponatinib): 4
- Av. SC ([2]; no competitor): 5
- Total SC ([2]; no competitor): 20
- Av. SC comp. ([3]; + free ponatinib): 0
- Total SC comp. ([3]; + free ponatinib): 0
- Av. SC ([3]; no competitor): 2.5
- Total SC ([3]; no competitor): 10
- Av. SC comp. ([4]; + free ponatinib): 0
- Total SC comp. ([4]; + free ponatinib): 0
- Av. SC ([4]; no competitor): 65.25
- Total SC ([4]; no competitor): 261
Compound: Cc1ccc(C(=O)Nc2ccc(CN3CCN(CCCN)CC3)c(C(F)(F)F)c2)cc1C#Cc1cnc2cccnn12 [c-ponatinib]
